Source: patent publication US20100222328A1, “2-CYCLOPROPYL-THIAZOLE DERIVATIVES” (priority 2007, published 2010)
Where two headings read alike, the source gives them in different places.

How the values were obtained:
human orexin-2 receptor = molecular target: T1, human orexin-2 receptor (Homo sapiens, UniProt O43614); assay: Intracellular calcium measurements (FLIPR), CHO cells expressing the human orexin-2 receptor, orexin-A as agonist; assay type: cell-based; conditions: 3 nM orexin-A, read-out: OX2 IC50
T1 construct: expressed in transfected cells; host or cells: CHO cells (grown under G418 selection)
T1 sequence (O43614 1-444): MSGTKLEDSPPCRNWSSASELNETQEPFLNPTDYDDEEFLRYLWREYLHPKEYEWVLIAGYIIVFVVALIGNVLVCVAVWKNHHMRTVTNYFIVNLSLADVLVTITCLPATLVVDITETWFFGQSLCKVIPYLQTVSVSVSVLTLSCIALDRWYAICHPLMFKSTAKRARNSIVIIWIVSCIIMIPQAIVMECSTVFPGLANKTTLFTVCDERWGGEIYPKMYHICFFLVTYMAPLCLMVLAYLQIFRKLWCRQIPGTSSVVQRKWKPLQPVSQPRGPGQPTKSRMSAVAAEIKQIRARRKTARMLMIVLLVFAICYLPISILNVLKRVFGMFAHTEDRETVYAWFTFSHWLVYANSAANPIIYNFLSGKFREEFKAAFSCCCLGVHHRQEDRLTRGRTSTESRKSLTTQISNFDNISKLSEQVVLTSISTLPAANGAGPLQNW
Method: (§1) The orexin receptor antagonistic activity of the compounds of formula (I) is determined in accordance with the following experimental method.
(§2) Chinese hamster ovary (CHO) cells expressing the human orexin-1 receptor and the human orexin-2 receptor, respectively, are grown in culture medium (Ham F-12 with L-Glutamine) containing 300 μg/ml G418, 100 U/ml penicillin, 100 μg/ml streptomycin and 10% heat inactivated fetal calf serum (FCS). The cells are seeded at 20′000 cells/well into 384-well black clear bottom sterile plates (Greiner). The seeded plates are incubated overnight at 37° C. in 5% CO2.
(§3) Human orexin-A as an agonist is prepared as 1 mM stock solution in MeOH: water (1:1), diluted in HBSS containing 0.1% bovine serum albumin (BSA), NaHCO3: 0.375g/l and 20 mM HEPES for use in the assay at a final concentration of 3 nM.
(§4) Antagonists are prepared as 10 mM stock solution in DMSO, then diluted in 384-well plates using DMSO followed by a transfer of the dilutions into in HBSS containing 0.1% bovine serum albumin (BSA), NaHCO3: 0.375 g/l and 20 mM HEPES. On the day of the assay, 50 μl of staining buffer (HBSS containing 1% FCS, 20 mM HEPES, NaHCO3: 0.375 g/l, 5 mM probenecid (Sigma) and 3 μM of the fluorescent calcium indicator fluo-4 AM (1 mM stock solution in DMSO, containing 10% pluronic) is added to each well. The 384-well cell-plates are incubated for 50 min at 37° C. in 5% CO2 followed by equilibration at rt for 30-120 min before measurement.
(§5) Within the Fluorescent Imaging Plate Reader (FLIPR2 or FLIPR Tetra, Molecular Devices), antagonists are added to the plate in a volume of 10 μl/well, incubated for 10 min and finally 10 μl/well of agonist is added. Fluorescence is measured for each well at 1 second intervals, and the height of each fluorescence peak is compared to the height of the fluorescence peak induced by 3 nM orexin-A with vehicle in place of antagonist. For each antagonist, the IC50 value (the concentration of compound needed to inhibit 50% of the agonistic response) is determined. The calculated IC50 values of the compounds may fluctuate depending on the daily cellular assay performance. Fluctuations of this kind are known to those skilled in the art.

human orexin-1 receptor = molecular target: T2, human orexin-1 receptor (Homo sapiens, UniProt O43613); assay: Intracellular calcium measurements (FLIPR), CHO cells expressing the human orexin-1 receptor, orexin-A as agonist; assay type: cell-based; conditions: 3 nM orexin-A, read-out: OX1 IC50
T2 construct: expressed in transfected cells; host or cells: CHO cells (grown under G418 selection)
T2 sequence (O43613 1-425): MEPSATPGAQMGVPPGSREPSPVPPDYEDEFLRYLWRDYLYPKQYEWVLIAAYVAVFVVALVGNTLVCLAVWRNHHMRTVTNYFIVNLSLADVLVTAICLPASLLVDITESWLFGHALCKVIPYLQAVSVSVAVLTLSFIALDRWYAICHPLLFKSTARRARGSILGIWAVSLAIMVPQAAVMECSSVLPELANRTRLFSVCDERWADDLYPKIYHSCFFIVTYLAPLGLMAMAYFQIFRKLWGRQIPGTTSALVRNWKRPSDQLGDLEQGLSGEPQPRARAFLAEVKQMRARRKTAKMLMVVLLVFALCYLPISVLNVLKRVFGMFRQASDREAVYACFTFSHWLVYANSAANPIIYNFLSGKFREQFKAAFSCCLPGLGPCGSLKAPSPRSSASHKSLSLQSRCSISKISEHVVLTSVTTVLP
Method: as §1, §2, §3, §4, §5

Structure (SMILES)	IC50 (human orexin-2 receptor; measured on FLIPR2) [µM]	IC50 (human orexin-1 receptor; measured on FLIPR2) [µM]	IC50 (human orexin-2 receptor; measured on FLIPR Tetra) [µM]	IC50 (human orexin-1 receptor; measured on FLIPR Tetra) [µM]
Cc1cccc(C(=O)NC[C@@H]2CCCCN2C(=O)c2nc(C3CC3)sc2-c2ccccc2F)c1 [Example 1, (S)—N-{1-[2-Cyclopropyl-5-(2-fluoro-phenyl)-thiazole-4-carbonyl]-piperidin-2-ylmethyl}-3-methyl-benzamide]	0.016	0.019	–	–
O=C(NC[C@@H]1CCCCN1C(=O)c1nc(C2CC2)sc1-c1ccccc1F)c1cccc2cccnc12 [Example 5, (S)-Quinoline-8-carboxylic acid {1-[2-cyclopropyl-5-(2-fluoro-phenyl)-thiazole-4-carbonyl]-piperidin-2-ylmethyl}-amide]	0.0077	0.0051	–	–
Cc1nc2sccn2c1C(=O)NC[C@@H]1CCCCN1C(=O)c1nc(C2CC2)sc1-c1ccccc1F [Example 10, (S)-6-Methyl-imidazo[2,1-b]thiazole-5-carboxylic acid {1-[2-cyclopropyl-5-(2-fluoro-phenyl)-thiazole-4-carbonyl]-piperidin-2-ylmethyl}-amide]	0.003	0.0018	–	–
Cc1ccc(-c2sc(C3CC3)nc2C(=O)N2CCCC[C@H]2CNC(=O)c2c(C)nc3sccn23)cc1 [Example 31, (S)-6-Methyl-imidazo[2,1-b]thiazole-5-carboxylic acid [1-(2-cyclopropyl-5-p-tolyl-thiazole-4-carbonyl)-piperidin-2-ylmethyl]-amide]	0.0086	0.0022	–	–
Cc1cccc(-c2sc(C3CC3)nc2C(=O)N2CCCC[C@H]2CNC(=O)c2cc3occc3n2C)c1 [Example 51, (S)-4-Methyl-4H-furo[3,2-b]pyrrole-5-carboxylic acid [1-(2-cyclopropyl-5-m-tolyl-thiazole-4-carbonyl)-piperidin-2-ylmethyl]-amide]	0.015	0.025	–	–
O=C(NC[C@@H]1CCCCN1C(=O)c1nc(C2CC2)sc1-c1cccc(Cl)c1)c1noc2ccccc12 [Example 68, (S)-Benzo[d]isoxazole-3-carboxylic acid {1-[5-(3-chloro-phenyl)-2-cyclopropyl-thiazole-4-carbonyl]-piperidin-2-ylmethyl}-amide]	0.011	0.019	–	–
O=C(NC[C@@H]1CCCCN1C(=O)c1nc(C2CC2)sc1-c1cccc(C(F)(F)F)c1)c1cccc(Br)c1 [Example 71, (S)-3-Bromo-N-{1-[2-cyclopropyl-5-(3-trifluoromethyl-phenyl)-thiazole-4-carbonyl]-piperidin-2-ylmethyl}-benzamide]	0.026	0.0072	–	–
O=C(NC[C@@H]1CCCN1C(=O)c1nc(C2CC2)sc1-c1ccc(F)cc1)c1cccc2occc12 [Example 88, (S)-Benzofuran-4-carboxylic acid {1-[2-cyclopropyl-5-(4-fluoro-phenyl)-thiazole-4-carbonyl]-pyrrolidin-2-ylmethyl}-amide]	0.015	0.023	–	–
O=C(NC[C@@H]1CCCCN1C(=O)c1nc(C2CC2)sc1-c1ccccc1)c1cnc2sccn12 [Example 96, (S)-Imidazo[2,1-b]thiazole-5-carboxylic acid [1-(2-cyclopropyl-5-phenyl-thiazole-4-carbonyl)-piperidin-2-ylmethyl]-amide]	–	–	0.0045	0.0036
Cn1nc(C(=O)NC[C@@H]2CCCCN2C(=O)c2nc(C3CC3)sc2-c2ccccc2)c2ccccc21 [Example 100, (S)-1-Methyl-1H-indazole-3-carboxylic acid [1-(2-cyclopropyl-5-phenyl-thiazole-4-carbonyl)-piperidin-2-ylmethyl]-amide]	–	–	0.02	0.014
Cc1cccc(-c2sc(C3CC3)nc2C(=O)N2CCCC[C@H]2CNC(=O)c2cccc3c2CCO3)c1 [Example 107, (S)-2,3-Dihydro-benzofuran-4-carboxylic acid [1-(2-cyclopropyl-5-m-tolyl-thiazole-4-carbonyl)-piperidin-2-ylmethyl]-amide]	–	–	0.022	0.018
Cc1cccc(-c2sc(C3CC3)nc2C(=O)N2CCCC[C@H]2CNC(=O)c2cccc(F)c2C)c1 [Example 114, (S)—N-[1-(2-Cyclopropyl-5-m-tolyl-thiazole-4-carbonyl)-piperidin-2-ylmethyl]-3-fluoro-2-methyl-benzamide]	–	–	0.019	0.015
Cn1c(C(=O)NC[C@@H]2CCCCN2C(=O)c2nc(C3CC3)sc2-c2ccccc2)cc2occc21 [Example 131, (S)-4-Methyl-4H-furo[3,2-b]pyrrole-5-carboxylic acid [1-(2-cyclopropyl-5-phenyl-thiazole-4-carbonyl)-piperidin-2-ylmethyl]-amide]	–	–	0.017	0.123
